Laboratory results published in US11596716B2, “Compounds and matrices for use in bone growth and repair” (Human BioMolecular Research Institute, priority 2013, dated 2023).
Read-outs that look alike come from different tables or passages of the source.

Columns and labels:
[1] = system: hMSCs; experiment: Alamar blue cell viability assay in hMSCs; format: cell-based, human; settings: 500 nM, 25-day-old hMSCs
Method: (§1) Cell proliferation/viability assay: Cells were seeded at a density of 500 cells/well on 96-well plates. After 24 hr, compound (i.e., 5 nM, 50 nM, 500 nM or 5000 nM) was added to the cells in the presence or absence of calcium phosphate matrix (5 mg/mL). One-half of the media was replaced with fresh media containing compound every 48 hours for 8 days. At the specified time, 1 μg of Resazurin was added to each well of the 96-well plate and the fluorescence signal at 590 nm (excitation at 530 nm) was immediately measured. Readings were designated as time zero values (value0h). Cells were incubated for 1 hr before a second fluorescence measurement at 590 nm was made (value1h). The difference in 1 hr and 0 h (value1h−value0h) readings were used to plot the fold-change in cell proliferation/viability after normalizing to control conditions (i.e., DMSO vehicle treatment). Compounds of Formula II or IV that activate Wnt signaling and compounds of Formula VI that activate TLR signaling pathways were analyzed. This protocol was applied to hMSC and E15 cells as well. Cell proliferation was not robust in keeping with a narrow number of cells highly committed to the bone cell lineage.
The assay for cell proliferation followed the same procedure with hMSCs as described for C2C12 cells (Example 7).

[2] = system: C2C12 cells; experiment: Alkaline Phosphatase (ALP) functional activity assay in C2C12 cells; format: cell-based, Mouse; settings: 500 nM; for ALP activity, combination of compound and matrix compared to compound alone or matrix alone: 6 day incubation, tricalcium phosphate ceramic matrix 5 mg/mL (FIG. 2); for ALP activity fold-changes +/− SD, +matrix / ALP activity fold-changes +/− SD, −matrix: 6 days of culture; for ALP activity fold-changes +/− SD, +matrix: calcium phosphate ceramic 5 mg/mL; for ALP activity fold-changes +/− SD, −matrix: absence of matrix, versus untreated (DMSO) cells
In short: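 C2C12 cells were seeded in 12-well plates at 7,000 cells/well in 1 mL growth media and exposed to compound in 0.1% DMSO (500 nM). Every 48 hrs half the media was replaced with fresh compound-containing media. After 6 days, cells were lysed and ALP activity measured by pNPP hydrolysis at OD405, normalized to protein and DMSO controls.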

[3] = system: hMSCs; experiment: Alkaline Phosphatase functional activity assay in hMSCs; format: cell-based, human; design: key to Alkaline Phosphatase activity, −matrix, 8 days / Alkaline Phosphatase activity, +matrix, 8 days / Alkaline Phosphatase activity, −matrix, 25 days / Alkaline Phosphatase activity, +matrix, 25 days: fold-change vs DMSO-treated control (control = 1); settings: for ALP functional activity, compound and matrix versus compound alone or matrix alone / Alkaline Phosphatase activity, +matrix, 8 days / Alkaline Phosphatase activity, +matrix, 25 days / Alkaline Phosphatase activity, −matrix, 25 days / Alkaline Phosphatase activity, −matrix, 8 days: 500 nM; for ALP functional activity, compound and matrix versus compound alone or matrix alone: 8 and 25 day incubations, matrix 5 mg/mL (FIG. 3); for Alkaline Phosphatase activity, +matrix, 8 days / Alkaline Phosphatase activity, +matrix, 25 days: matrix 5 mg/mL; for Alkaline Phosphatase activity, +matrix, 8 days / Alkaline Phosphatase activity, +matrix, 25 days / Alkaline Phosphatase activity, −matrix, 25 days / Alkaline Phosphatase activity, −matrix, 8 days: mean +/− SD (n = 3); for Alkaline Phosphatase activity, −matrix, 8 days: fold; for EC50: dose-dependent induction in hMSCs, read-out: EC50 of induction of ALP activity
[4] = system: C2C12 cells; experiment: Cell proliferation/viability assay (Resazurin / Alamar blue) in C2C12 cells; format: cell-based, Mouse; settings: for cell viability (Alamar blue): 500 nM every 48 hrs for 25 days
Method: as §1, with “One-half of the media was replaced with fresh media containing compound every 48 hours for 8 days.” left out

[5] = system: C2C12 cells; experiment: Alizarin Red S staining (calcium deposition) in C2C12 cells; format: cell-based, Mouse; settings: 500 nM, 25 days of treatment
Method: Alizarin Red S Staining: C2C12 cells were cultured as described for the ALP functional activity assay (above, except compound was added every 48 hr for 25 days), but using 48-well plate format. On day 25, medium was removed and the cells were washed with PBS (calcium and magnesium free). Cells were fixed with 70% ethanol at room temperature for 30 mins, rinsed with water 3×. Following removal of water, 200 μl of Alizarin Red S (2%, pH 4.1) was added to each well and incubated for at least 20 mins. The dye was removed and the cells were washed with excess H2O four times with gentle mixing. The cells were covered with water to prevent evaporation and analyzed by plate reader or microscope. This protocol was applied to hMSC and E15 cells.

[6] = system: hMSCs; experiment: qPCR of apoptosis biomarkers (Bax and Fos) in hMSCs; format: cell-based, human; settings: for gene expression of apoptosis biomarkers (Bax and Fos): 500 nM to 5 μM, up to 25 days; for cytotoxicity as determined by quantification of apoptosis: hMSCs
[7] = system: C2C12 cells; experiment: qPCR of apoptosis biomarkers (Bax and Fos) in C2C12 cells; format: cell-based, Mouse; settings: 500 nM or 5 μM every 48 hrs, up to 25 days
[8] = system: C2C12 cells; experiment: qPCR detection of osteogenic markers in C2C12 cells; format: cell-based, Mouse; settings: 500 nM, 6 days
[9] = system: hMSCs; experiment: Oil Red O staining (adipogenesis) in hMSCs; format: cell-based, human; settings: for effect on adipogenesis, densitometry of cell culture images: 500 nM every 48 hr for 25 days, TCP 5 mg/mL; for adipogenesis (Oil Red O staining) compared to vehicle-treated hMSCs: presence or absence of matrix, 25 days
Method: Oil Red O Staining: Oil Red O (ORO, 1-(2,5-dimethyl-4-(2-5-dimethylphenyl) phenyldiazenyl) azonapthalen-2-ol) was used to stain for the presence of adipocytes. An ORO solution was prepared to afford a 0.03% final concentration in dH2O. hMSCs were cultured as described above for Alizarin Red Staining (Example 7) in 48-well plates. On day 25 of cell incubation, cells were fixed with 4% formaldehyde for 40 mins at room temperature. Cells were stained for 1 hr followed by washes with dH2O (1 mL) until the wash water was clear (without red elutes). Cell culture images were taken under a microscope and quantified by densitometry.

SMILES | cell viability (Alamar blue) [1] | ALP activity, combination of compound and matrix compared to compound alone or matrix alone [2] | ALP activity fold-changes +/− SD, +matrix [2] | ALP functional activity, compound and matrix versus compound alone or matrix alone [3] | Alkaline Phosphatase activity, +matrix, 8 days [3] | Alkaline Phosphatase activity, +matrix, 25 days [3] | Alkaline Phosphatase activity, −matrix, 25 days [3] | Alkaline Phosphatase activity, −matrix, 8 days [3] | EC50 ([3]; Homo sapiens) | cell viability (Alamar blue) [4] | calcium deposition, absence of matrix [5] | gene expression of apoptosis biomarkers (Bax and Fos) [6] | cytotoxicity as determined by quantification of apoptosis [6] | gene expression of apoptosis biomarkers (Bax and Fos) [7] | ID3 mRNA expression, presence of matrix [8] | ALP activity fold-changes +/− SD, −matrix [2] | effect on adipogenesis, densitometry of cell culture images [9] | adipogenesis (Oil Red O staining) compared to vehicle-treated hMSCs [9] | other results
CC(=O)N1c2ccc(C)cc2[C@H](Nc2ccc(C)cc2)C[C@@H]1C (relative stereo) [Compound 1, cis-1-acetyl-2,6-dimethyl-N-(p-methylphenyl)-1,2,3,4-tetrahydroquinolin-4-amine] | no decrease in cell viability | synergistic increase in ALP activity | 19.4 ± 2.0 fold | exceeded the effect of compound alone or matrix alone | 1.5 ± 0.1 | 3.6 ± 0.4 | 1.5 ± 0.1 | 1.2 ± 0.1 | 26 nM | did not show a decrease in cell viability | 1.6 fold | unable to detect gene expression of typical apoptosis biomarkers | no cytotoxicity | unable to detect gene expression of typical apoptosis biomarkers | 5.0 fold |  |  |  | calcium deposition, presence of matrix [5]: 2.5 fold; ID3 mRNA expression, absence of matrix [8]: 1.8 fold
CC(C)[C@H](N)C(=O)Oc1ccc(/C=C/C(O)=C2\CCC/C(=C\c3ccc(OC(=O)[C@@H](N)C(C)C)cc3)C2=O)cc1 [Compound 4, 4-((1E,3Z)-3-(3-((E)-4-((L-valyl)oxy)benzylidene)-2-oxocyclohexylidene)-3-hydroxyprop-1-en-1-yl)phenyl L-valinate] | no decrease in cell viability | synergistic increase in ALP activity | 2.6 ± 0.3 fold | exceeded the effect of compound alone or matrix alone | 2.7 ± 0.2 | 4.0 ± 0.4 | 1.8 ± 0.2 | 1.5 ± 0.1 | 130 nM | did not show a decrease in cell viability | marked calcium deposition | unable to detect gene expression of typical apoptosis biomarkers | no cytotoxicity | unable to detect gene expression of typical apoptosis biomarkers | increased expression | 1.7 ± 0.2 fold | modestly inhibitory to adipogenesis | no increase in adipogenesis | 
CC(C)[C@H](N)C(=O)Oc1ccc(C=CC(=O)C=C(O)C=Cc2ccc(OC(=O)[C@@H](N)C(C)C)cc2)cc1 [Compound 3, (2S,2′S)—O,O′-(3-hydroxy-5-oxohepta-1,3,6-triene-1,7-diyl)bis(4,1-phenylene) bis(2-amino-3-methylbutanoate)] | no decrease in cell viability | synergistic increase in ALP activity |  | exceeded the effect of compound alone or matrix alone | 1.8 ± 0.1 | 2.3 ± 0.2 | 1.7 ± 0.1 | 1.5 ± 0.1 |  | did not show a decrease in cell viability | marked calcium deposition | unable to detect gene expression of typical apoptosis biomarkers | no cytotoxicity | unable to detect gene expression of typical apoptosis biomarkers | increased expression | 1.7 ± 0.2 fold | modestly inhibitory to adipogenesis | no increase in adipogenesis | EC50 [3]: 140 nM; increase in cell proliferation (Alamar Blue Assay) ([4]; 50 nM, 3 days): 4 fold
